Experiments:
Assay type in all cases: functional
[1] = system: MDA-MB-231; test: Antiproliferative activity against ER negative human MDA-MB-231 cells assessed as cell growth inhibition after 72 hrs by MTT assay; conditions: MDA-MB-231, 72 h
[2] = system: WI-38; test: Antiproliferative activity against human WI38 cells assessed as cell growth inhibition after 72 hrs by MTT assay; conditions: WI-38, 72 h
[3] = system: A2780; test: Cell cycle arrest in human A2780 cells assessed as accumulation at subG1 phase at 0.06 uM after 24 hrs by flow cytometric analysis (reference value: 0.62%)
[4] = system: A2780; test: Cell cycle arrest in human A2780 cells assessed as accumulation at G2/M phase at […] after 24 hrs by flow cytometric analysis (reference value: 21.81%)
[5] = system: A2780; test: Cell cycle arrest in human A2780 cells assessed as accumulation at subG1 phase at 1 uM after 24 hrs by flow cytometric analysis (reference value: 0.62%)
[6] = system: A2780; test: Cell cycle arrest in human A2780 cells assessed as accumulation at G1 phase at 1 uM after 24 hrs by flow cytometric analysis (reference value: 54.89%)
[7] = system: WI-38; test: Cell cycle arrest in human WI38 cells assessed as accumulation at subG1 phase at 0.06 uM after 24 hrs by flow cytometric analysis (reference value: 10.53%)
[8] = system: WI-38; test: Cell cycle arrest in human WI38 cells assessed as accumulation at G1 phase at 0.06 uM after 24 hrs by flow cytometric analysis (reference value: 55.89%)
[9] = system: WI-38; test: Cell cycle arrest in human WI38 cells assessed as accumulation at S phase at 0.06 uM after 24 hrs by flow cytometric analysis (reference value: 16.25%)
[10] = system: WI-38; test: Cell cycle arrest in human WI38 cells assessed as accumulation at subG1 phase at […] after 24 hrs by flow cytometric analysis (reference value: 10.53%)
[11] = system: WI-38; test: Cell cycle arrest in human WI38 cells assessed as accumulation at G2/M phase at […] after 24 hrs by flow cytometric analysis (reference value: 17.36%)
[12] = system: WI-38; test: Cell cycle arrest in human WI38 cells assessed as accumulation at subG1 phase at 1 uM after 24 hrs by flow cytometric analysis (reference value: 10.53%)
[13] = system: WI-38; test: Cell cycle arrest in human WI38 cells assessed as accumulation at G2/M phase at 1 uM after 24 hrs by flow cytometric analysis (reference value: 17.36%)
[14] = system: A2780; test: Induction of apoptosis in human A2780 cells assessed as necrotic cells at […] after 48 hrs by annexin V/PI double staining (reference value: 0.53%)
[15] = system: A2780; test: Induction of apoptosis in human A2780 cells assessed as late-stage apoptotic cells at 1 uM after 48 hrs by annexin V/PI double staining (reference value: 10.20%)
[16] = system: WI-38; test: Induction of apoptosis in human WI38 cells assessed as viable cells at 0.06 uM after 48 hrs by annexin V/PI double staining (reference value: 80.59%); conditions: WI-38, 48 h, read-out: Activity
[17] = system: WI-38; test: Induction of apoptosis in human WI38 cells assessed as early-stage apoptotic cells at […] after 48 hrs by annexin V/PI double staining (reference value: 2.16%)
[18] = system: WI-38; test: Induction of apoptosis in human WI38 cells assessed as late-stage apoptotic cells at 1 uM after 48 hrs by annexin V/PI double staining (reference value: 16.26%)
[19] = system: WI-38; test: Induction of apoptosis in human WI38 cells assessed as viable cells at 1 uM after 48 hrs by annexin V/PI double staining (reference value: 80.59%); conditions: WI-38, 48 h, read-out: Activity

GI50 [1]: 57 nM
SMILES: COc1cc(OC)c(/C=C/S(=O)(=O)Cc2ccc(OC)c(NCC(=O)O)c2)c(OC)c1 [RIGOSERTIB]
GI50 [2]: > 10000 nM
Activity [3]: 0.63%
Activity [4]: 31.77%
Activity [5]: 0.32%
Activity [6]: 5.37%
Activity [7]: 5.71%
Activity [8]: 64.47%
Activity [9]: 11.86%
Activity [10]: 9.46%
Activity [11]: 26.83%
Activity [12]: 6.57%
Activity [13]: 19.27%
Activity [14]: 0.71%
Activity [15]: 21.83%
viability at 0.06 µM [16]: 85.5%
Activity [17]: 5.36%
Activity [18]: 22.43%
viability at 1 µM [19]: 65.7%

— ChEMBL document CHEMBL3259791, “Discovery of (E)-3-((styrylsulfonyl)methyl)pyridine and (E)-2-((styrylsulfonyl)methyl)pyridine derivatives as anticancer agents: synthesis, structure-activity relationships, and biological activities” (J Med Chem, 2014)
